31 molecules from US20150018546A1, “HETEROCYCLIC COMPOUND HAVING ANTI-HIV ACTIVITY” (TOYAMA CHEMICAL CO., LTD., priority 2012, published 2015) can be followed below.

This assay concerns HIV-1 (JRCSF). As to the kind of experiment: Anti-HIV activity in MaRBLE cells infected with HIV-1 (JRCSF), luciferase readout. Type of assay: cell-based. The conditions noted are these: Human immunodeficiency virus 1, 168 h; MaRBLE cells (human T lymphocyte-derived HPB-M(a)) infected with HIV-1 (JRCSF); 7 days culture; rate of viral proliferation by luciferase activity; read-out: Anti-HIV activity IC50. The procedure: This test was conducted with reference to Journal of Clinical Microbiology, 2007, Vol. 45, p. 477-487.
The anti-HIV activity was evaluated using MaRBLE cells in which a luciferase gene to be expressed under the control of HIV-1 LTR and a CCR5 gene, etc. were introduced in human T lymphocyte-derived HPB-M(a).
A fresh medium or each appropriately diluted test compound was dispensed to 96-well plates to prepare drug solution-containing plates.
The MaRBLE cells were suspended in RPMI1640 containing 10% FCS (fetal calf serum) and penicillin/streptomycin and infected with HIV-1 (JRCSF). Then, the cells were inoculated to the drug solution-containing plates (1×10^5 cells/well). The same number of uninfected cells were inoculated as a control group to the drug solution-containing plates.
After culture at 37° C. for 7 days in a 5% CO2 atmosphere, the intracellular luciferase activity was measured using Steady-Glo Luciferase assay system (Promega Corp.).
The rate of viral proliferation was determined according to the following expression:
Rate of viral proliferation(%)=(A/B)×100
A=(Firefly luciferase activity of the compound-supplemented well)−(Firefly luciferase activity of the uninfected cells)
B=(Firefly luciferase activity of the compound-free well)−(Firefly luciferase activity of the uninfected cells)
IC50 of the compound was calculated by a plot with concentration as the logarithm and the rate of viral proliferation as the real part using the FORECAST function (linear regression method) of Microsoft Office Excel 2003.
In general, IC50 refers to the midpoint of a concentration-inhibition curve. As to `O=c1cc(NCc2ccc(-c3ccccc3)cc2)c2cncnc2n1O` [Example 97, 5-(((biphenyl-4-yl)methyl)amino)-8-hydroxypyrido[2,3-d]pyrimidin-7(8H)-one], the IC50 was determined as 200 nM.
As for `CN(C)c1ccc(CNc2cc(=O)n(O)c3ncncc23)cc1` [Example 102, 5-((4-(dimethylamino)benzyl)amino)-8-hydroxypyrido [2,3-d]pyrimidin-7(8H)-one], the figure is 210 nM; as for `O=c1cc(NCc2ccc(O)cc2)c2cncnc2n1O` [Example 103, 8-hydroxy-5-((4-hydroxybenzyl)amino)pyrido[2,3-d]pyrimidin-7(8H)-one], 200 nM.
With `O=C(NCc1ccccc1)c1c(O)c2cncnc2n(O)c1=O` [Example 105, N-benzyl-5,8-dihydroxy-7-oxo-7,8-dihydropyrido[2,3-d]pyrimidine-6-carboxamide] the figure was 64 nM; with `Cc1ncnc2c1c(NCc1cccnc1)cc(=O)n2O` [Example 106, 8-hydroxy-4-methyl-5-(((pyridin-3-yl)methyl)amino)pyrido[2,3-d]pyrimidin-7(8H)-one], 80 nM.
Turning to `O=c1cc(NCc2ccc(O)c(O)c2)c2cncnc2n1O` [Example 108, 5-((3,4-dihydroxybenzyl)amino)-8-hydroxypyrido[2,3-d]pyrimidin-7(8H)-one], the IC50 stood at 570 nM.
On to `Cc1ncnc2c1c(NCc1ccc(O)cc1)cc(=O)n2O` [Example 110, 8-hydroxy-5-((4-hydroxybenzyl)amino)-4-methylpyrido[2,3-d]pyrimidin-7(8H)-one], for which the IC50 came out at 49 nM.
As for `Cc1ncnc2c1c(O)c(C(=O)NCc1ccccc1)c(=O)n2O` [Example 111, N-benzyl-5,8-dihydroxy-4-methyl-7-oxo-7,8-dihydropyrido[2,3-d]pyrimidine-6-carboxamide], the figure is 8.4 nM.
As for `Cc1ncnc2c1c(NCc1ccccc1O)cc(=O)n2O` [Example 112, 8-hydroxy-5-((2-hydroxybenzyl)amino)-4-methylpyrido[2,3-d]pyrimidin-7(8H)-one], the figure is 28 nM.
As for `Cc1ncnc2c1c(NCc1ccc(O)c(O)c1)cc(=O)n2O` [Example 113, 5-((3,4-dihydroxybenzyl)amino)-8-hydroxy-4-methylpyrido[2,3-d]pyrimidin-7(8H)-one], the IC50 is 73 nM.
As for `Cc1ncnc2c1c(NCc1cccc(O)c1)cc(=O)n2O` [Example 114, 8-hydroxy-5-((3-hydroxybenzyl)amino)-4-methylpyrido[2,3-d]pyrimidin-7(8H)-one], the figure is 42 nM; as for `O=c1cc(NCc2ccccc2)c2c(O)ncnc2n1O` [Example 115, 5-(benzylamino)-4,8-dihydroxypyrido[2,3-d]pyrimidin-7(8H)-one], 150 nM; as for `Cc1ncnc2c1c(NCc1ccccc1NS(C)(=O)=O)cc(=O)n2O` [Example 122, N-(2-(((8-hydroxy-4-methyl-7-oxo-7,8-dihydropyrido[2,3-d]pyrimidin-5-yl)amino)methyl)phenyl)methanesulfonamide], 100 nM.
With `Cc1ncnc2c1c(NCc1ccccc1N)cc(=O)n2O` [Example 123, 5-((2-aminobenzyl)amino)-8-hydroxy-4-methylpyrido[2,3-d]pyrimidin-7(8H)-one], the IC50 amounted to 78 nM.
With `Cc1ncnc2c1c(NCc1cnc3ccccc3c1)cc(=O)n2O` [Example 124, 8-hydroxy-4-methyl-5-(((quinolin-3-yl)methyl)amino)pyrido[2,3-d]pyrimidin-7(8H)-one], the IC50 came to 58 nM.
With `Cc1ncnc2c1c(NCc1ccc(N)cc1)cc(=O)n2O` [Example 125, 5-((4-aminobenzyl)amino)-8-hydroxy-4-methylpyrido[2,3-d]pyrimidin-7(8H)-one] the figure was 63 nM.
As for `Cc1ncnc2c1c(NCc1cccc(NS(C)(=O)=O)c1)cc(=O)n2O` [Example 126, N-(3-(((8-hydroxy-4-methyl-7-oxo-7,8-dihydropyrido[2,3-d]pyrimidin-5-yl)amino)methyl)phenyl)methanesulfonamide], the figure is 140 nM; as for `Cc1ncnc2c1c(N)cc(=O)n2O` [Example 127, 5-amino-8-hydroxy-4-methylpyrido[2,3-d]pyrimidin-7(8H)-one], 150 nM.
As for `Cc1ncnc2c1c(NCc1ccc(NS(C)(=O)=O)cc1)cc(=O)n2O` [Example 128, N-(4-(((8-hydroxy-4-methyl-7-oxo-7,8-dihydropyrido[2,3-d]pyrimidin-5-yl)amino)methyl)phenyl)methanesulfonamide], the figure is 270 nM.
`Cc1ncnc2c1c(NCc1cccc(N)c1)cc(=O)n2O` [Example 129, 5-((3-aminobenzyl)amino)-8-hydroxy-4-methylpyrido[2,3-d]pyrimidin-7(8H)-one]: the IC50 is 91 nM.
For the molecule `Cc1ncnc2c1c(NCc1cccc(CN)c1)cc(=O)n2O` [Example 132, 5-((3-(aminomethyl)benzyl)amino)-8-hydroxy-4-methylpyrido[2,3-d]pyrimidin-7(8H)-one], the IC50 stood at 210 nM.
As for `Cc1ncnc2c1c(NCc1cnccc1C(F)(F)F)cc(=O)n2O` [Example 133, 8-hydroxy-4-methyl-5-(((4-(trifluoromethyl)pyridin-3-yl)methyl)amino)pyrido[2,3-d]pyrimidin-7(8H)-one], the IC50 came out at 59 nM.
As for `Cc1ncnc2c1c(NCc1ccc(CN)cc1)cc(=O)n2O` [Example 134], the figure is 140 nM.
With `Cc1cncc(CNc2cc(=O)n(O)c3ncnc(C)c23)c1` [Example 136, 8-hydroxy-4-methyl-5-(((5-methylpyridin-3-yl)methyl)amino)pyrido[2,3-d]pyrimidin-7(8H)-one] the figure was 120 nM.
With `Cc1cccc(CNc2cc(=O)n(O)c3ncnc(C)c23)c1` [Example 137, 8-hydroxy-4-methyl-5-((3-methylbenzyl)amino)pyrido[2,3-d]pyrimidin-7(8H)-one] the figure was 82 nM; with `Cc1ncnc2c1c(NCc1ccccc1N1CCCCC1)cc(=O)n2O` [Example 138, 8-hydroxy-4-methyl-5-((2-(piperidin-1-yl)benzyl)amino)pyrido[2,3-d]pyrimidin-7(8H)-one], 94 nM; with `Cc1ncnc2c1c(NCc1ccccc1CN)cc(=O)n2O` [Example 140, 5-((2-(aminomethyl)benzyl)amino)-8-hydroxy-4-methylpyrido[2,3-d]pyrimidin-7(8H)-one], 190 nM.
For the molecule `Cc1ncnc2c1c(NCc1cncc3ccccc13)cc(=O)n2O` [Example 141, 8-hydroxy-5-(((isoquinolin-4-yl)methyl)amino)-4-methylpyrido[2,3-d]pyrimidin-7(8H)-one], the IC50 is 46 nM.
Turning to `CC(=O)Nc1ccc(CNc2cc(=O)n(O)c3ncnc(C)c23)cc1` [Example 142, N-(4-(((8-hydroxy-4-methyl-7-oxo-7,8-dihydropyrido[2,3-d]pyrimidin-5-yl)amino)methyl)phenyl)acetamide], the IC50 amounted to 130 nM.
As for `Cc1ncnc2c1c(NCc1cccc(CN(C)C)c1)cc(=O)n2O` [Example 143, 5-((3-((dimethylamino)methyl)benzyl)amino)-8-hydroxy-4-methylpyrido[2,3-d]pyrimidin-7(8H)-one], the figure is 120 nM; as for `Cc1ncnc2c1c(NCc1ccc(OCCO)cc1)cc(=O)n2O` [Example 144, 8-hydroxy-5-((4-(2-hydroxyethoxy)benzyl)amino)-4-methylpyrido[2,3-d]pyrimidin-7(8H)-one], 90 nM.
